Assay results reported in US6482654B1, “Method of detecting shikimic acid” (Syngenta Limited, priority 2000, dated 2002).

Tested on: plants
Test: Shikimic acid/shikimate accumulation in glyphosate-treated plants, periodate/sulfite chromophore assay
Format: in vivo
Conditions: plants treated with a lethal amount of glyphosate; 5-10 μL of extract of about 150 mg leaf tissue in 8-fold (w/v) 0.25N hydrochloric acid; 1 ml final solution; control about 0.1 AU
Experimental: In the performance of the methods of the invention, for detection of the chromophore, it is preferable to have an absorbance of at least 0.05 absorbance units (AU) for the untreated control plant test sample and an absorbance of less than 2.0 AU for the test sample with the greatest amount of shikimic acid/shikimate in order to obtain optimal results from spectrophotometric measurement of the chromophore. […] After reaction with the periodate reagent and quenching by 0.5 ml of a mixture comprising sulfite and sodium hydroxide, there was 1 ml of solution with an absorbance of about 1.8 AU, while an untreated control plant gave an absorbance of about 0.1 AU.

O=C(O)CNCP(=O)(O)O [glyphosate, N-(phosphonomethyl) glycine]
absorbance of the chromophore (shikimic acid/shikimate accumulated): about 1.8 AU
